From patent US10857201B2, “NNIF and nNIF-related peptides and related methods” (UNIVERSITY OF UTAH RESEARCH FOUNDATION, priority 2016, dated 2020)

Assays:
[1] = tested on: C57BL/6 mice subjected to CLP; assay: Mouse model of polymicrobial sepsis, cecal ligation and puncture (CLP); conditions: 10 mg/kg i.p. 1 hour before and 6 hours after, versus nNIF-SCR
Experimental: FIG. 9B is a graph depicting C57BL/6 mice that were subjected to cecal ligation and puncture (CLP). nNIF or nNIF-SCR (10 mg/kg i.p.) was given 1 hour before and 6 hours after surgery (n≥7 in each group). Mice subjected to sham surgery were studied in parallel (n=3 in each group). Clinical illness severity scores (see Araujo C V, et al., Shock. 2016; 45 (4):393-403) were determined at 24 hours.
C57BL/6 mice were anaesthetized with ketamine/xylazine (100 mg/kg and 10 mg/kg, i.p; respectively), and cecal ligation and puncture (CLP) was performed as previously described (see Araujo C V, et al., Shock. 2016; 45 (4):393-403). nNIF (10 mg/kg) or nNIF-SCR (10 mg/kg) i.p. was given 1 hour prior to and 6 hours after CLP surgery. The animals received subcutaneous sterile isotonic saline (1 mL) for fluid resuscitation immediately after the surgery. Sham-operated mice were subjected to identical procedures except that CLP was not done. 24 hours after CLP, all animals were scored for clinical illness severity as previously described (see Araujo C V, et al., Shock. 2016; 45 (4):393-403). In this assessment, higher scores reflect increased illness severity.

[2] = tested on: NET formation in E. coli peritonitis; assay: Mouse model of E. coli peritonitis (in vivo NET formation); conditions: for NET formation by peritoneal fluid PMNs / deployment of NETs on the peritoneal surface / number of PMNs in peritoneal fluid: C57BL/6 mice, 3 hours; for NET formation by peritoneal fluid PMNs / deployment of NETs on the peritoneal surface: 10 mg/kg i.p. 1 hour before E. coli i.p.; for number of PMNs in peritoneal fluid: E. coli i.p.; for peritoneal NET formation: Swiss Webster mice infected with E. coli
Description: FIG. 8A depicts results of peritoneal fluid NET formation (red fluorescence, yellow arrow) assessed by live cell imaging (60× magnification, scale bar=50 μm) and histone H3 release (red dashed line=baseline arbitrarily set at 1). Three mice per group. One way ANOVA with Tukey's post hoc testing, ***P<0.001 for CRISPP and nNIF versus CRISPP-SCR.
FIG. 8B depicts results of NET formation on the surfaces of peritoneal membranes (red fluorescence, yellow arrows) that was quantified by counting the number of NETs that crossed standardized grid lines in […] (60× magnification; scale bar=50 μm) using IMAGEJ™ software. A second experiment yielded a similar pattern. FIGS. 8A and 8B depict C57BL/6 mice that were not pretreated or pretreated with nNIF, CRISPP, or CRISPP-SCR (10 mg/kg i.p.; 1 hour) and were inoculated with E. coli (4.5×10^7 bacteria i.p.). After 3 hours, the animals were sacrificed, and peritoneal fluid (FIG. 8A) and membranes (FIG. 8B) were collected for analysis.
FIG. 8C depicts C57BL/6 mice that were not pretreated (left two bars) or that were pretreated with CRISPP, nNIF, or CRISPP-SCR, and that were inoculated with E. coli i.p. as in FIGS. 8A and 8B. Neutrophil numbers in peritoneal fluid were counted after 3 hours (3-5 mice/group). […]
FIG. 8E depicts peritoneal fluid NET formation, imaged and measured as in FIG. 8A (10 mice/group). *P<0.05 for CRISPP/E. coli and nNIF/E. coli compared to CRISPP-SCR/E. coli and E. coli.
FIG. 8F depicts NET formation on peritoneal membrane surfaces, imaged and quantitated as in FIG. 8B (3 mice in each group). *P<0.05 for E. coli versus control (red dashed line); **P<0.01 for CRISPP-SCR/E. coli versus control; †P<0.05 for CRISPP/E. coli and nNIF/E. coli versus CRISPP-SCR/E. coli. One way ANOVA with Tukey's post-hoc testing applied in FIGS. 8E and 8F. In FIGS. 8E and 8F, Swiss-Webster mice that were not pretreated or that were pretreated with nNIF, CRISPP, or CRISPP-SCR were inoculated with E. coli i.p. as in FIGS. 8A and 8B. After 3 hours, peritoneal fluid and membranes were collected. FIGS. 8A-8F indicate that nNIF and CRISPP inhibit in vivo NET formation.
C57/BL6 or Swiss-Webster mice were pretreated in blinded fashion with CRISPP (10 mg/kg), nNIF (10 mg/kg), or CRISPP-SCR (10 mg/kg) by i.p. injection 1 hour prior to infection (E. coli, 4.5×10^7 cfu/mouse, i.p.) or inoculation (LPS, 25 mg/kg, i.p.) (SIGMA-ALDRICH®). Control mice were injected with saline alone. The mice were sacrificed in a CO2 chamber 3 hours post-infection/inoculation, and the peritoneal fluid and membrane samples were harvested. Briefly, the abdomen was disinfected and opened in the midline without injuring the muscle. The peritoneal cavity was lavaged with sterile saline solution (1 mL) and analyzed for in vivo NET formation, bacteriology, and leukocyte accumulation. NETs in the peritoneal fluid were qualitatively and quantitatively analyzed using live cell imaging with confocal microscopy and NET-associated histone H3 release assays. NETs on the serosal surface of the peritoneal membrane were assessed quantitatively using live cell imaging, followed by standardized grid analysis of five randomly selected high-power visual fields per tissue sample (IMAGEJ™ software, NIH). Peritoneal bacterial colony forming unit (cfu) counts were quantified by permeabilizing all recovered leukocytes with 0.1% Triton X-100 for 10 minutes and performing serial dilutions and bacterial cultures on 5% sheep blood agar plates (HARDY DIAGNOSTICS™). After a 24-hour incubation, bacterial counts were determined. Total leukocyte counts in the peritoneal lavage were determined in Neubauer chambers using an optical microscope after dilution in Turk's solution (2% acetic acid). Differential leukocyte analysis was performed using a 60× oil immersion objective to assess morphology of cyto-centrifuged cells stained with May-Gruenwald-Giemsa dye. All mice were included in the final analysis.

PMN phagocytosis = assay: Phagocytosis of fluorescently labeled E. coli bioparticles; type: cell-based, human; conditions: 4 hour incubation, peptides 1 nM
Experimental: FIG. 6C is a graph depicting phagocytosis of fluorescently-labeled E. coli bioparticles that were measured by microscopy after a 4 hour incubation. Treatment with cytochalasin B and D served as a control for inhibition of phagocytosis. Student's t test, *P<0.05.
PMNs were isolated from blood of healthy adult donors and resuspended in M-199 at a concentration of 2×10^6 cells/mL. Leukocytes were pre-incubated for 60 minutes under standard conditions with cytochalasin D and B (10 μM), nNIF (1 nM), CRISPP (1 nM), or CRISPP-SCR (1 nM). Following pre-incubation, PMNs were incubated with 6×10^6 E. coli bioparticles (MOLECULAR PROBES®) on a rotator for 4 hours at 37° C. in 5% […] air. The PMNs were then washed and resuspended in the starting volume of M-199 before being spun down onto glass coverslips and fixed with 2% p-FA for 10 minutes and permeabilized with 0.1% Triton-X-100 for 10 minutes. Leukocytes were stained with WGA 555 (INVITROGEN™) and TO-PRO®-3 (MOLECULAR PROBES®), and randomly selected high-power visual field images were captured using confocal microscopy. IMAGEJ™ software (NIH) was used to determine the percentage of PMNs that were positive for fluorescently labeled E. coli bioparticles detected at 488 nm.

Row | Substance | clinical illness scores at 24 hours [1] | NET formation by peritoneal fluid PMNs [2] | deployment of NETs on the peritoneal surface [2] | number of PMNs in peritoneal fluid [2] | peritoneal NET formation [2] | phagocytosis (PMN phagocytosis)
1 | KFNKPFVFLMIEQNTKSPLFMGKVVNPTQ (listed as Homo sapiens) [nNIF] | lower | inhibited | inhibited | trend was to greater numbers | inhibited | did not inhibit
2 | M_IPPEVKFNKPFVFLMIDQNTKVPLFMGK [CRISPP, consensus peptide based on factors present in the blood of patients with cancer] |  | inhibited | inhibited | greater | inhibited | did not inhibit
